The subject of one data set is HepG2 liver cancer cells. The experiment in a line: Cell toxicity (MTT assay), HepG2. The class given is cell-based. The note with it: copper ions alone, absence of peptides, read-out: LC50 (the source's name). As to the method: (§1) HEK293 and MCF7 cells were cultured in Dulbecco’s modified Eagle’s medium (DMEM) high glucose medium, with fetal bovine serum (10%), L-glutamine (1%), and PSNS antibiotic (1%). The HepG2 cell line was cultured in Eagle’s minimum essential medium (EMEM), with fetal bovine serum (10%), L-glutamine (1%) and PSNS antibiotic (1%). The THLE-3 cell line was cultured in BGEM medium according to manufacturer’s instructions. All cell line types were cultured at 37°C with 5% CO2. The culture media was changed every 2 days. At 80% confluence, the cells were harvested using 0.25% trypsin and sub-cultured into 75 cm^2 flasks, 24-well plates, or 96-well plates, according to the experiment. The cells were then treated with a range of peptide concentrations suspended in medium without serum for 24 h. After the 24 h treatment, the various toxicity end points were evaluated in the control and peptide-exposed cells.
(§2) Peptides were introduced at various concentrations (three triplicates per concentration) ranging from 0 to 1 mM and incubated with the different cell lines (HEK293/MCF7/HepG2/THLE-3) for 24 h at 37°C. […] Lysates were transferred to 96-well plates and absorption values were collected using a Synergy plate reader at 570 nm wavelength. […] The absorption of the control (without peptide) was determined at 100%; all peptide concentrations were compared to the control sample. […]

Data set [1] has as its system HEK293 human kidney cells. In words: Cell toxicity (MTT assay), HEK293. The class given is cell-based. The note with it: copper ions alone, absence of peptides, read-out: LC50 (the source's name). Here is the method:
as §1, §2

The test system of another data set is MCF7 breast cancer cells. The experiment in a line: Cell toxicity (MTT assay), MCF7. The class given is cell-based. As to conditions: copper ions alone, absence of peptides, read-out: LC50 (the source's name). As to the method:
as §1, §2

The next data set addresses T1, ATP7B MBD3-4 (Homo sapiens, UniProt P35670).
T1 construct: […]; made in house; host or cells: E. coli Origami 2
T1 sequence (P35670 234-439): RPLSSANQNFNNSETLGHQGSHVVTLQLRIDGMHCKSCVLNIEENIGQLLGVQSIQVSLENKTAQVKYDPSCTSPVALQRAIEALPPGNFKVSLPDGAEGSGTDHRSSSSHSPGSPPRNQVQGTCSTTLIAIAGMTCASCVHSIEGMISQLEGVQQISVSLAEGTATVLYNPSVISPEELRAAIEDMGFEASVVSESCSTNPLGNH
In words: Microscale thermophoresis (MST) binding to MBD3-4. The note with it: for Kd: in the presence of Cu(I) (40 µM), protein 50 nM. As to the method:
To better understand the EPR and CD experiments, MST binding experiments were performed. MST is a physical phenomenon whereby biomolecules migrate along a temperature gradient according to their size, hydrodynamic radius, charge, and hydration shell. The target biomolecule is fluorescently labeled and monitored over the course of the experiment. An infra-red laser is used to create a temperature gradient for a given time. Since binding interactions can alter the properties listed above, a binding curve can be created with a ligand titration series. Fixed amounts of labelled MBD3-4 or Atox1 were incubated with increasing concentrations of SMD or KER peptides, in the presence or absence of Cu(I) (Figure 3). […] The measured KD values of the SMD peptide were in the tens of µM range for both Atox1 (39 ± 3 μM) and MBD3-4 (45 ± 4 μM), whereas KER peptide preferentially interacted with Atox1 (20 ± 2 μM). The KD for the interaction with MBD3-4 was slightly higher (36 ± 3 μM).
The labelling was performed with reactive dyes using N-hydroxysuccinimide (NHS)–ester chemistry. The protein concentration was adjusted to 20 μM using HEPES buffer. Briefly, the solid fluorescent dye was dissolved in DMSO at a concentration of about 1.3 mM and mixed thoroughly. Before mixing the protein and dye, the concentration of the dye was adjusted to twice that of the protein using HEPES buffer. Then, the protein and fluorescent dye solutions were mixed at a 1:1 ratio and incubated for 30 min at room temperature in the dark. […] Purity was monitored by measuring the ratio of protein to dye (spectroscopically, for example, by measuring absorption at 280 nm for protein and 650 nm for the dye; molar absorbance: 250,000 M^−1 cm^−1) after the clean-up procedure.
(§3) MBD3-4 and Atox1 were labeled on lysine residues with red fluorescent NT-647-NHS using the NanoTemper labeling kit. […] Normalized fluorescence was detected at a ratio of [Fnorm = Fhot/Finitial]. Fluorescence was measured before IR-laser heating (Finitial) and after a specific IR-laser heating (Fhot) time. […]

Another data set addresses T2, Atox1 (Homo sapiens, UniProt O00244).
T2 construct: made in house; host or cells: E. coli Origami 2 (as for ATP7B MBD3-4)
T2 sequence (O00244 1-68): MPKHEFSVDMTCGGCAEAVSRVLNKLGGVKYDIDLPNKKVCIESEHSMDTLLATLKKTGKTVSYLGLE
In words: Microscale thermophoresis (MST) binding to Atox1. The note with it: neither in the presence nor in the absence of Cu(I). Here is the method:
To better understand the EPR and CD experiments, MST binding experiments were performed. MST is a physical phenomenon whereby biomolecules migrate along a temperature gradient according to their size, hydrodynamic radius, charge, and hydration shell. The target biomolecule is fluorescently labeled and monitored over the course of the experiment. An infra-red laser is used to create a temperature gradient for a given time. Since binding interactions can alter the properties listed above, a binding curve can be created with a ligand titration series. Fixed amounts of labelled MBD3-4 or Atox1 were incubated with increasing concentrations of SMD or KER peptides, in the presence or absence of Cu(I) (Figure 3). […]
The labelling was performed with reactive dyes using N-hydroxysuccinimide (NHS)–ester chemistry. […] Purity was monitored by measuring the ratio of protein to dye (spectroscopically, for example, by measuring absorption at 280 nm for protein and 650 nm for the dye; molar absorbance: 250,000 M^−1 cm^−1) after the clean-up procedure.
as §3

Data set [2] concerns the target ATP7B MBD3-4, fluorescently labelled (NT-647-NHS). The experiment in a line: MST; with Cu(I) 40 uM; labelled protein 50 nM, peptide titrated; 25 mM Na2HPO4 pH 8, 150 mM NaCl, 0.05% Tween 20; 25 C; Monolith NT.115.
Data set [3] deals with T3, Atox1, fluorescently labelled (NT-647-NHS) (UniProt O00244 1-68, red fluorescent NT-647-NHS on lysine residues).
T3 construct: Atox1 copper metallochaperone; also called metallochaperone Atox1; source: E. coli Origami 2, purified as for ATP7B MBD3-4 (chitin beads, intein self-cleaved with DTT)
T3 sequence (looked up): T2 sequence (O00244 1-68)
The data set is described as above. The note with it: both partners purified.

For data set [4], the target named is T3, Atox1, fluorescently labelled …. In words: cell-based or functional assay.
Data set [5] concerns the target ATP7B MBD3-4, fluorescently labelled (NT-647-NHS).

The record followed here is paper PMC9589254, “Disrupting Cu trafficking as a potential therapy for cancer” (Frontiers in Molecular Biosciences, 2022).

Peptide text beside a SMILES is read from it.

ATP7B MBD3-4, fluorescently labelled (NT-647-NHS), sequence (P35670 whole entry): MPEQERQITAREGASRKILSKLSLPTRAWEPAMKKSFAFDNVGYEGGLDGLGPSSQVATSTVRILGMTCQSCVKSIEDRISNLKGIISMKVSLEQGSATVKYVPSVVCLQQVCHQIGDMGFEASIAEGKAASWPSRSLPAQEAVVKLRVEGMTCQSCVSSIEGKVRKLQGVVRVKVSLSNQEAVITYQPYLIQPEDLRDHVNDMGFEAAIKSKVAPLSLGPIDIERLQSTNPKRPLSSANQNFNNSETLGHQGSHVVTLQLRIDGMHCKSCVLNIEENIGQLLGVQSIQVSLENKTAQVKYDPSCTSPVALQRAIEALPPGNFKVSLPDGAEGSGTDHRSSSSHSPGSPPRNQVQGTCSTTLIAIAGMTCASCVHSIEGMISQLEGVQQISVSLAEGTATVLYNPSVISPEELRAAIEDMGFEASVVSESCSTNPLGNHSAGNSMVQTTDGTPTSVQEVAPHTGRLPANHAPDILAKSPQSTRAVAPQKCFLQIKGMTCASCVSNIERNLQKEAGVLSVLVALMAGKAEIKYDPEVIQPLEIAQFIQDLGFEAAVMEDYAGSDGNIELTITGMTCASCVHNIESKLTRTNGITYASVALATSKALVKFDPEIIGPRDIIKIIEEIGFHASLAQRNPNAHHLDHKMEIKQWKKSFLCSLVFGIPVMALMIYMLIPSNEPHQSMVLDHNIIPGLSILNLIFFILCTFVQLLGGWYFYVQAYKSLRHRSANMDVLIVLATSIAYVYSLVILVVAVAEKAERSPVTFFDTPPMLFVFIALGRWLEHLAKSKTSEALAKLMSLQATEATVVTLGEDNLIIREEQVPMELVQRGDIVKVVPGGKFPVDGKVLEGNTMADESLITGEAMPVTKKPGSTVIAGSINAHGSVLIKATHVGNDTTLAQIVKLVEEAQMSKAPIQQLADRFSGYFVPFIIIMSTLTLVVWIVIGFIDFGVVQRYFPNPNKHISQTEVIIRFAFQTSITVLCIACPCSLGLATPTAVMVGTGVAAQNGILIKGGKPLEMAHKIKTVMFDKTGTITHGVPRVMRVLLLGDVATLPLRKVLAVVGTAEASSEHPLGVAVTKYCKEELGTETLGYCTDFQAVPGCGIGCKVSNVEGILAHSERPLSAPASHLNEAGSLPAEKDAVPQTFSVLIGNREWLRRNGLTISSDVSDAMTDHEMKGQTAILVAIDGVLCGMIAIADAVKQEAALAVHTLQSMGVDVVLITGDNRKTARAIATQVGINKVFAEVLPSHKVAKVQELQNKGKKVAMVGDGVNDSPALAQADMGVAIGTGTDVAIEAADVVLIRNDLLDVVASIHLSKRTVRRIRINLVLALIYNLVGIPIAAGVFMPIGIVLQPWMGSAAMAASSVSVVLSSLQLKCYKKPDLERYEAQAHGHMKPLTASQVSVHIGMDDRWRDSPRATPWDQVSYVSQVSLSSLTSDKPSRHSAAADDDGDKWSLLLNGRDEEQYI

In the case of `[Cu+]` [Cu(I)], the CC50 was 170 µM with HepG2 liver cancer cells, 150 µM in [1] and 165 µM with MCF7 breast cancer cells.

In the case of `[Cu+2]` [Cu(II)], the results for the CC50 (in the data set with HepG2 liver cancer cells; in data set [1]; with MCF7 breast cancer cells) were 205 µM, 196 µM and 180 µM, respectively.

On to `C[C@@H](O)[C@H](NC(=O)[C@H](CCCNC(=N)N)NC(=O)[C@H](CCC(=O)O)NC(=O)[C@@H](N)CCCCN)C(=O)N[C@@H](CO)C(=O)N[C@@H](CCCNC(=N)N)C(N)=O` [KER, KERTSR] (H-KERTSR-NH2), for which the Kd on ATP7B MBD3-4 amounted to 36 ± 3 µM.

On to `CC[C@H](C)[C@H](NC(=O)[C@H](CO)NC(=O)[C@H](CCSC)NC(=O)[C@H](CC(=O)O)NC(=O)[C@H](CCSC)NC(=O)[C@@H](N)CO)C(=O)N[C@@H](CCC(=O)O)C(N)=O` [SMD, SMDMSIE] (H-SMDMSIE-NH2), for which the Kd on ATP7B MBD3-4 was determined as 45 ± 4 µM.

GAGAAA [Ala]: the “Binding interaction with MBD3-4 (MST)” value at ATP7B MBD3-4 (neither in the presence nor in the absence of Cu(I)) is reported as “No binding interaction was observed”. The “Binding interaction with Atox1 (MST)” value on Atox1 was “No binding interaction was observed”.

B1: SMD peptide (peptide)
peptide: SMDMSIE
notes: Made on rink-amide resin, which would give a C-terminal amide; also called SMDMSIE; source: synthetic peptide (Fmoc, rink-amide resin, reverse phase HPLC; 95.1% purity)
Regarding B1, the results for the Kd in data set [2] and in [3] were 45 µM and 39 ± 3 µM, respectively. Also, the “intracellular 64Cu content of MCF7 cells 4 h after 64Cu(II) injection, with peptide against without” value in [4] and in data set [5] was 5 fold in each case.

B2: KER peptide (peptide)
peptide: KERTSR
notes: Made on rink-amide resin, which would give a C-terminal amide; also called KERTSR; source: synthetic peptide (Fmoc, rink-amide resin, reverse phase HPLC; 99.4% purity)
Consider B2, for which the Kd in data set [2] was 36 µM; in data set [3], 20 ± 2 µM. Also, the “intracellular 64Cu content of MCF7 cells 4 h after 64Cu(II) injection, with peptide against without” value in data set [4] and in [5] was 3 fold throughout.
